Laboratory results published in patent publication US9732088B2, “C2-carbocyclic iminothiazine dioxides as BACE inhibitors, compositions, and their use” (Merck Sharp & Dohme Corp., priority 2014, dated 2017).

Columns and labels:
BACE-1 = BACE-1 (Homo sapiens (Human), UniProt P56817); experiment: BACE-1 Cellular Assay (Aβ in HEK293-APPswe/lon cells); assay type: cell-based; details: 4 hours
Method: Assay 3: BACE-1 Cellular Assay
Certain compounds of the invention, identified in the tables herein, were determined to be potent inhibitors of BACE-1 in the following cellular assay. HEK293 cells are obtained from the American Type Culture Collection (ATCC) and stably transfected with the human amyloid precursor protein cDNA containing the FAD Swedish (enhances β-secretase processing) and London (enhances Aβ42 cleavage) mutations. A HEK293 stable clone with Aβ expression (HEK293-APP^swe/lon) is identified and maintained at 37° C., 5% CO2 in the ATCC-recommended growth media supplemented with hygromycin. […] Aβ40 or Aβ42 are measured in 15 μl of media using a mesoscale based ELISA assay. Full length Aβ40 and Aβ42 peptides are captured with the N-terminal specific biotinylated-WO2 monoclonal antibody and detected using either the ruthenylated Aβ40 C-terminal specific monoclonal antibody, G2-10 or the ruthenylated Aβ42 C-terminal specific monoclonal antibody G2-11 respectively. Raw electrochemiluminescnce values are measured using a Mesoscale Sector Imager plate reader and are plotted as a function of compound concentration. IC50 values are interpolated from the data using nonlinear regression analysis (Sigmoidal dose response fit with variable slope) of the data using GraphPad Prism software.

rat Mdr1a (P-gp) = rat Mdr1a (P-gp) (Rattus norvegicus, UniProt Q6PSM0); experiment: P-Glycoprotein (P-gp) Efflux Susceptibility Assay; assay type: in vitro ADME; details: LLC-PK1, pH 7.4; rat LLC-Mdr1a cells, B-A/A-B Papp ratio at 3 h; method 0.1 μM; read-out: P-gp efflux assay (rMDR1a BAAB)
Sequence of rat Mdr1a (P-gp) (Q6PSM0 1-1272): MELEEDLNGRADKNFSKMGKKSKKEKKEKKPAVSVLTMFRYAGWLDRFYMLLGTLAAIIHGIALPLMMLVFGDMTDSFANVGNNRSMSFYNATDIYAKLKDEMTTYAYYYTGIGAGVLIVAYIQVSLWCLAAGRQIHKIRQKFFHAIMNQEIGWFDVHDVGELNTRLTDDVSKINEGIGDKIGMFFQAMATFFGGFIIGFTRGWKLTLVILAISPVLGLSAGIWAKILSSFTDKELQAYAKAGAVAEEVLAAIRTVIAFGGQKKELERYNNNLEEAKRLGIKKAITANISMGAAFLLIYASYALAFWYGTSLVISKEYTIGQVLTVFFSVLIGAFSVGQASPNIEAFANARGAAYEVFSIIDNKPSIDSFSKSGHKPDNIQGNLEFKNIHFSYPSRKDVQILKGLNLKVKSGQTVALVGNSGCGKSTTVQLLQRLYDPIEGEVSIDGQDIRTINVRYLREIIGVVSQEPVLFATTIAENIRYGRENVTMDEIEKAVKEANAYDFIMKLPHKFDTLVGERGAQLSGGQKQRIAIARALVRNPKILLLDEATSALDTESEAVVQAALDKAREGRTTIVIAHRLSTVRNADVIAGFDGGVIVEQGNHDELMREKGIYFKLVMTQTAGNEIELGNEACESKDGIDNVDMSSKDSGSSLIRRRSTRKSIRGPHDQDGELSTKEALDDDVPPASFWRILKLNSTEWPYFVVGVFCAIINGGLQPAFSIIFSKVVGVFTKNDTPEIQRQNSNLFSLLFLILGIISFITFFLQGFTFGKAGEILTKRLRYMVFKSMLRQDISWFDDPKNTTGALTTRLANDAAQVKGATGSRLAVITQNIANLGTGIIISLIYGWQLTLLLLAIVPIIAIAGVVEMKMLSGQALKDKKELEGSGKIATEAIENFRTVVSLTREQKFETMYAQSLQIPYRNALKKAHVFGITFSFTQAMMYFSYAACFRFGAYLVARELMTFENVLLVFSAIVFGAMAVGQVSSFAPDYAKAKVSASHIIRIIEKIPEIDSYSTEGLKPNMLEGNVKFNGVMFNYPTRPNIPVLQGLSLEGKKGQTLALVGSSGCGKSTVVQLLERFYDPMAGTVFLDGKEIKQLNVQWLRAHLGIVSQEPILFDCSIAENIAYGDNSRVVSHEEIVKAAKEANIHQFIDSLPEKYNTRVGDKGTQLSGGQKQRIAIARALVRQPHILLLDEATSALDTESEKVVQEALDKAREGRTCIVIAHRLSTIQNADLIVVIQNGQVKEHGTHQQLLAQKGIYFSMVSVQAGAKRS
Method: Assay 6: P-Glycoprotein (P-Gp) Efflux Susceptibility Assay
As P-gp is expressed at the blood-brain-barrier, among other tissues, lower P-gp efflux ratio values are associated with a better ability to cross the blood-brain-barrier to reach the site of BACE-1 expression in the central nervous system. P-gp efflux ratios are measured in cellular assays using cell lines that express P-gp from a number of species including rat, monkey, and human. The following assay was used to measure the rat P-gp efflux ratios, which are believed to be the most sensitive measure of P-gp susceptibility, for the compounds of the invention (test compounds) reported in the tables below.
The bidirectional transport of test compounds was conducted across pig kidney epithelial (LLC-PK1) cell monolayers. Native LLC-PK1 cells were obtained from The Netherlands Cancer Institute (Amsterdam, The Netherlands), and used under a license agreement. LLC-PK1 cells expressing a cDNA encoding rat Mdr1a (rat LLC-Mdr1a) were made in-house by stable transfection of LLC-PK1 cells with a rat MDR1 cDNA. LLC-PK1 and rat LLC-Mdr1a cell lines were cultured in 96-well transwell culture plates. […] Substrate solution (150 μL) was added to either the apical (A) or the basolateral (B) compartment of the culture plate, and buffer (150 μL; HBSS, 10 mM HEPES, pH 7.4) was added to the compartment opposite to that containing the compound. At t=3 h, 50 μL samples were removed from both sides of monolayers dosed with test compound and placed in 96 well plates, internal standard (50 μL 1 μM labetolol) was added to the samples. Samples were analyzed by LC/MS/MS using an Applied Biosystems SCIEX API 5000 triple quadruple mass spectrometry (Concord, ON, Canada) with a TurbolonSpray ion source in the positive ion mode. A Thermo Scientific Transcend LX-2 system (Franklin, Mass.) was coupled to the API 5000 with a flow rate of 800 μL/min to direct sample into the mass spectrometer. A Waters ACQUITY UPLC T3 (2×30 mm, 1.7 μm; Milford, Mass.) column was used for sample analysis. Mobile phase A consisted of 0.1% formic acid in water. Mobile phase B was acetonitrile with 0.1% formic acid. A gradient elution program was utilized where the solvent composition was held at 5% B for 0.25 min, changed from 5% B to 95% B at 0.25 min, and followed by holding at 95% B for 0.5 min, then, went back to 5% B at 0.75 min. The column was then re-equilibrated at the original solvent composition for 0.5 min. Mass spectrometric detection was accomplished by multiple reaction monitoring (MRM) of transitions unique to each compound. Sample concentration was obtained by extrapolation from the standard curve. Verapamil (1 μM) was used as the positive control to assess the functional activity of Pgp. The experiment was performed in triplicate.
The Papp was calculated by the following formula for samples taken at t=3 h:
[formula] where “Volume of Receptor Chamber” is 0.15 mL, “Area of membrane” is 0.11 cm^2, the “Initial Concentration” is the sum of the concentration measured in the donor compartment plus the concentration measured in the receiver compartment at t=3 h, “Δ in Concentration” is the concentration in the receiver compartment at 3 h, and “Δ in Time” is the incubation time (3×60×60=10800 s). Papp was expressed as 10^−6 cm/s.
The Papp reported in the table below is the average of the Papp for transport from A to B and Papp for transport from B to A at t=3 hr.
The B-A/A-B ratio (BAAB) was calculated by dividing the Papp from B to A by the Papp from A to B at t=3 h: […]

CSF Aβ40 = experiment: Aβ Reduction In Vivo (rat CSF Aβ40); details: male CD IGS rats, 10 mg/kg oral gavage, CSF at 3 hours, change vs vehicle
Method: Assay 5: Aβ Reduction In Vivo
The in vivo efficacy and/or potency of BACE inhibitors (test compounds) can be evaluated using a variety of animal models, including mouse, rat, dog, and monkey, and these animals can be wild type, transgenic, or gene knockout animals.
Generally, animals are administered (by oral gavage, intravenous injection, or by other suitable route) a test compound in doses ranging from, for example, 0.1 mg/kg (mg of compound per kg of animal body weight) to 100 mg/kg formulated in vehicles, such as cyclodextrin, phosphate buffer, hydroxypropyl methylcellulose or other suitable vehicles. One to twenty-four hours following the administration of compound, animals are sacrificed, and tissues (for example, brain, cerebrospinal fluid (CSF), and/or plasma) are collected for analysis of Aβ levels and/or test compound concentrations (Dovey et al., 2001, Journal of Neurochemistry, 76, 173-181). Tissue samples are processed appropriately and then analyzed for the presence of Aβ by specific sandwich ELISA assays based on electrochemiluminescence (ECL) technology.
For example, in the following assay for which data are reported below, male CD IGS rats (body weight approximately 120 g, Charles River Laboratories, Kingston, N.Y.) were used to assess lowering of CSF levels of Aβ1-40 (Aβ40) in the presence of compounds of the invention. At time 0, animals were administered by oral gavage a test compound at a dose of 10 mg/kg in 20% hydroxypropyl-β-cyclodextrin (dosing volume 5 mL/kg). A separate group of animals received 20% hydroxypropyl-β-cyclodextrin alone to serve as the vehicle control group. Three hours after administration, the rats were euthanized with excess CO2. Immediately following euthanasia, CSF was collected from the cisterna magna and quickly frozen on dry ice. Samples were stored at −80° C. until quantification of Aβ40 levels.
The measurement of endogenous rat Aβ40 in CSF relied on the 585 antibody (Ab585, BioSource, NONO585), which specifically recognizes the N-terminal sequence of rodent Aβ40, and on the monoclonal antibody, G2-10, which specifically recognizes the free C-terminus of Aβ40. Ab585 was labeled with biotin (b-Ab585) by first dialyzing the antibody sample extensively versus PBS (pH 7.8) to remove impurities, followed by dilution to between 1 and 2 mg/mL protein concentration. EZ-Link Sulfo-NHS-LC-Biotin (Pierce) was dissolved in PBS (pH 7.8) at a concentration of 1 mg/mL immediately prior to use. Ab585 was labeled with EZ-Link Sulfo-NHS-LC-biotin using a 10:1 biotin:antibody ratio by incubation at room temperature for 1 hour. The labeling reaction was quenched by addition of 1.0 M glycine to a final concentration of 0.1 M followed by 10 minute incubation at room temperature. Glycine was removed by extensive dialysis versus PBS.
For rat CSF Aβ40 determinations, a calibration curve of various concentrations of synthetic rodent Aβ40 was assayed in parallel with rat CSF samples in duplicate using an avidin-coated 96-well MSD plate (Mesoscale Diagnostics). Either 50 μL of rodent Aβ40 standards diluted in PBS (pH 7.4) supplemented with 1% BSA and 1% Tween-20 (standard diluent buffer) or 40 μL of standard diluent buffer plus 10 μL rat CSF were added to each 96 well avidin-coated plate. To each well was added 50 μL of 0.1 M HEPES (pH 7.5), 2% BSA, 2% Tween-20, 0.3 M NaCl (2×Aβ40 buffer) supplemented with the b-Ab585 capture and ruthenylated-G2-10 detection antibodies diluted to 1 μg/mL and 0.5 μg/mL, respectively. Plates were shaken for 1 min on a microplate shaker, covered to protect from light and incubated overnight (˜16 h) at 4° C. For detection, plates were first washed twice with 100 μL of 1×CSF Aβ40 buffer followed by addition of 160 μL of 1×MSD read buffer-T (Mesoscale Diagnostics) diluted in 1×CSF Aβ40 buffer. Plates were read on a MSD Sector Imager 2400 model (Mesoscale Diagnosotics). […]

Sequence of BACE-1 (P56817 46-501): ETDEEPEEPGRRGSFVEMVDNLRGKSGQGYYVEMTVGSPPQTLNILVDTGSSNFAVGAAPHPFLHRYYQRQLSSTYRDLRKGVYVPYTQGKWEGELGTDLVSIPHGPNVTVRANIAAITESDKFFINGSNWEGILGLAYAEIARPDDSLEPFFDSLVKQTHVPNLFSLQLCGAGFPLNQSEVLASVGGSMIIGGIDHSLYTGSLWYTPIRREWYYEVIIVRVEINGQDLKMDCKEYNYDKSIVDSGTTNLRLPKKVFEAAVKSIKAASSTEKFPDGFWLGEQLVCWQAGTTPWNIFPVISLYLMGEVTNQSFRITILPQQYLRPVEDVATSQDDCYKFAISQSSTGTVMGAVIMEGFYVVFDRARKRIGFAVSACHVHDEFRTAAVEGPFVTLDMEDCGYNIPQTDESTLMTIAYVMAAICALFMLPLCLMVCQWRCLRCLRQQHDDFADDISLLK

Structure (SMILES) | IC50 (BACE-1) [nM] | efflux ratio at 3 h (rat Mdr1a (P-gp)) | Aβ reduction in vivo in rat (Δ% CSF Aβ40 @ 10 mpk) (CSF Aβ40) [%]
C[C@@]1(c2cc(Nc3nccc4cc(C#N)cnc34)ccc2F)CS(=O)(=O)[C@@](CF)(C2CC2)C(N)=N1 [Example 1, 8-({3-[(3R,6S)-6-cyclopropyl-6-(fluoromethyl)-5-imino-3-methyl-1,1-dioxidothiomorpholin-3-yl]-4-fluorophenyl}amino)-1,7-naphthyridine-carbonitrile] | 24 | 6.1 | −58
COc1cnc2c(Nc3cc([C@]4(C)CS(=O)(=O)[C@@](C)(C5CC5)C(N)=N4)c(F)cn3)ccnc2n1 [Example 35, (3R,6S)-5-amino-6-cyclopropyl-3-(5-fluoro-2-((3-methoxypyrido[2,3-b]pyrazin-8-yl)amino)pyridin-4-yl)-3,6-dimethyl-3,6-dihydro-2H-1,4-thiazine 1,1-dioxide] | 10 |  | −75
COc1cnc2c(Nc3ccc(F)c([C@]4(C)CS(=O)(=O)[C@@](C)(C5CC5)C(N)=N4)c3)ccnc2c1 [Example 36, (3R,6S)-5-amino-6-cyclopropyl-3-(2-fluoro-5-((7-methoxy-1,5-naphthyridin-4-yl)amino)phenyl)-3,6-dimethyl-3,6-dihydro-2H-1,4-thiazine 1,1-dioxide] | 3.5 |  | −67
